Results published in the NIST ThermoML archive (doi:10.1016/j.jct.2015.06.004).
Numbers after ± are expanded uncertainties.

Legend:
[1] = excess molar enthalpy (molar enthalpy of mixing); xn = mol fraction of the nth substance listed; conditions: 298.15 K, 100 kPa, Liquid, Power-compensation calorimetry
[2] = 298.15 K; 101.33 kPa; Liquid; Vibrating tube method

CCCC[N+]1(C)CCCC1.N#C[B-](C#N)(C#N)C#N [1-butyl-1-methylpyrrolidinium tetracyanoborate] + Cc1ccccc1
[1]
Conditions | excess molar enthalpy [kcal/mol]
x1 = 0.0179 | -0.0242 ± 0.00141
x1 = 0.0359 | -0.0474 ± 0.00167
x1 = 0.0539 | -0.0702 ± 0.00201
x1 = 0.0719 | -0.093 ± 0.00239
x1 = 0.0898 | -0.116 ± 0.00287
x1 = 0.1079 | -0.138 ± 0.00335
x1 = 0.1259 | -0.161 ± 0.00359
x1 = 0.1439 | -0.184 ± 0.00406
x1 = 0.1619 | -0.206 ± 0.00454
x1 = 0.1799 | -0.228 ± 0.00502
x1 = 0.1979 | -0.249 ± 0.0055
x1 = 0.2159 | -0.271 ± 0.00598
x1 = 0.2339 | -0.291 ± 0.00621
x1 = 0.2519 | -0.304 ± 0.00645
x1 = 0.2698 | -0.313 ± 0.00669
x1 = 0.2878 | -0.319 ± 0.00693
x1 = 0.2933 | -0.315 ± 0.00669
x1 = 0.3059 | -0.322 ± 0.00693
x1 = 0.3203 | -0.319 ± 0.00693
x1 = 0.3239 | -0.323 ± 0.00693
x1 = 0.3369 | -0.321 ± 0.00693
x1 = 0.3603 | -0.312 ± 0.00669
x1 = 0.4004 | -0.301 ± 0.00645
x1 = 0.4405 | -0.285 ± 0.00621
x1 = 0.4805 | -0.267 ± 0.00574
x1 = 0.5206 | -0.247 ± 0.00526
x1 = 0.5606 | -0.226 ± 0.00478
x1 = 0.6006 | -0.206 ± 0.00454
x1 = 0.6407 | -0.184 ± 0.00406
x1 = 0.6807 | -0.163 ± 0.00359
x1 = 0.7207 | -0.141 ± 0.00311
x1 = 0.7606 | -0.12 ± 0.00263
x1 = 0.8006 | -0.0991 ± 0.00222
x1 = 0.8405 | -0.0784 ± 0.00179
x1 = 0.8803 | -0.058 ± 0.00139
x1 = 0.9202 | -0.0379 ± 0.001
x1 = 0.9601 | -0.0183 ± 0.000693

CCCC[N+]1(C)CCCC1.N#C[B-](C#N)(C#N)C#N [1-butyl-1-methylpyrrolidinium tetracyanoborate] + c1ccccc1
[1]
Conditions | excess molar enthalpy [kcal/mol]
x1 = 0.0138 | -0.0203 ± 0.00153
x1 = 0.0277 | -0.0402 ± 0.0017
x1 = 0.0415 | -0.06 ± 0.00196
x1 = 0.0555 | -0.0799 ± 0.00227
x1 = 0.0694 | -0.0998 ± 0.00263
x1 = 0.0834 | -0.12 ± 0.00287
x1 = 0.0975 | -0.14 ± 0.00335
x1 = 0.1115 | -0.16 ± 0.00382
x1 = 0.1256 | -0.18 ± 0.00406
x1 = 0.1398 | -0.2 ± 0.00454
x1 = 0.1539 | -0.219 ± 0.00502
x1 = 0.1681 | -0.238 ± 0.00526
x1 = 0.1824 | -0.253 ± 0.0055
x1 = 0.1966 | -0.266 ± 0.00574
x1 = 0.2109 | -0.277 ± 0.00598
x1 = 0.2253 | -0.285 ± 0.00621
x1 = 0.2396 | -0.29 ± 0.00621
x1 = 0.2534 | -0.29 ± 0.00621
x1 = 0.254 | -0.294 ± 0.00621
x1 = 0.2685 | -0.296 ± 0.00621
x1 = 0.2767 | -0.296 ± 0.00621
x1 = 0.28 | -0.296 ± 0.00645
x1 = 0.3165 | -0.294 ± 0.00621
x1 = 0.3564 | -0.284 ± 0.00598
x1 = 0.3963 | -0.269 ± 0.00574
x1 = 0.4362 | -0.252 ± 0.0055
x1 = 0.4762 | -0.232 ± 0.00502
x1 = 0.5162 | -0.212 ± 0.00454
x1 = 0.5564 | -0.192 ± 0.00406
x1 = 0.5965 | -0.172 ± 0.00382
x1 = 0.6367 | -0.153 ± 0.00335
x1 = 0.6769 | -0.134 ± 0.00287
x1 = 0.7172 | -0.116 ± 0.00263
x1 = 0.7575 | -0.0981 ± 0.0022
x1 = 0.7979 | -0.0803 ± 0.00182
x1 = 0.8384 | -0.0632 ± 0.00146
x1 = 0.8788 | -0.0466 ± 0.00112
x1 = 0.9191 | -0.0305 ± 0.000813
x1 = 0.9596 | -0.0149 ± 0.00055

CCCC[N+]1(C)CCCC1.N#C[B-](C#N)(C#N)C#N [1-butyl-1-methylpyrrolidinium tetracyanoborate] + c1ccsc1
[1]
Conditions | excess molar enthalpy [kcal/mol]
x1 = 0.0147 | -0.0239 ± 0.00167
x1 = 0.0293 | -0.0467 ± 0.00189
x1 = 0.0439 | -0.0692 ± 0.00217
x1 = 0.0586 | -0.0916 ± 0.00263
x1 = 0.0732 | -0.114 ± 0.00287
x1 = 0.0879 | -0.136 ± 0.00335
x1 = 0.1026 | -0.158 ± 0.00382
x1 = 0.1173 | -0.18 ± 0.00406
x1 = 0.1321 | -0.202 ± 0.00454
x1 = 0.1468 | -0.224 ± 0.00502
x1 = 0.1616 | -0.245 ± 0.0055
x1 = 0.1763 | -0.263 ± 0.00574
x1 = 0.1911 | -0.279 ± 0.00598
x1 = 0.2059 | -0.292 ± 0.00621
x1 = 0.2207 | -0.302 ± 0.00645
x1 = 0.2316 | -0.303 ± 0.00645
x1 = 0.2355 | -0.31 ± 0.00669
x1 = 0.2503 | -0.316 ± 0.00813
x1 = 0.2515 | -0.311 ± 0.00789
x1 = 0.2642 | -0.319 ± 0.00693
x1 = 0.2763 | -0.315 ± 0.00669
x1 = 0.316 | -0.313 ± 0.00669
x1 = 0.3559 | -0.303 ± 0.00645
x1 = 0.3957 | -0.289 ± 0.00621
x1 = 0.4356 | -0.272 ± 0.00574
x1 = 0.4756 | -0.253 ± 0.0055
x1 = 0.5155 | -0.233 ± 0.00502
x1 = 0.5556 | -0.213 ± 0.00454
x1 = 0.5958 | -0.192 ± 0.00406
x1 = 0.636 | -0.172 ± 0.00382
x1 = 0.6763 | -0.151 ± 0.00335
x1 = 0.7165 | -0.131 ± 0.00287
x1 = 0.757 | -0.111 ± 0.00239
x1 = 0.7974 | -0.0918 ± 0.00206
x1 = 0.8378 | -0.0726 ± 0.00167
x1 = 0.8782 | -0.0537 ± 0.00129
x1 = 0.9188 | -0.0352 ± 0.000932
x1 = 0.9595 | -0.017 ± 0.000621

c1ccccc1 [benzene]
Conditions | mass density [kg/m3]
[2] | 873.57 ± 1

CCCCO [butan-1-ol]
Conditions | mass density [kg/m3]
[2] | 805.79 ± 1

CCO [ethanol]
Conditions | mass density [kg/m3]
[2] | 785.39 ± 1

CO [methanol]
Conditions | mass density [kg/m3]
[2] | 786.6 ± 1

CCCO [propan-1-ol]
Conditions | mass density [kg/m3]
[2] | 799.56 ± 1

c1ccsc1 [thiophene]
Conditions | mass density [kg/m3]
[2] | 1058.46 ± 1

Cc1ccccc1 [toluene]
Conditions | mass density [kg/m3]
[2] | 862.22 ± 1
